# System: Hartley-type male guinea pigs
# Test: Guinea Pig Homogeneous Skin Passive Anaphylaxis Assay (PCA reaction)
# Assay type: in vivo, guinea pig (Hartley-type)
# Conditions: 10 mg/kg oral, 48 h after sensitization
# In short: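 Inhibition % is derived from Evans Blue leakage area (mm^2, product of spot diameters) read 30 min after i.v. OVA/dye challenge. Beforehand, male Hartley guinea pigs (250~300 g) were passively sensitized intradermally with 120-fold-diluted anti-OVA serum and, after 48 h, received test compound 10 mg/kg p.o.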
row,Compound,Allergic reaction inhibitory index (%)
1,3-(methoxy)-4-(decyloxy)-8-hydroxy-2H-1-benzopyran-2-one [Compound 99],33

# Same assay, conditions: Cavia porcellus, 10 mg/kg oral, 48 h after sensitization, read-out: Allergic reaction inhibitory index (%)
row,Compound,inhibition in vivo at 10 mg/kg [%]
1,"CC(=O)Oc1c(OC(=O)c2ccccc2)c(=O)oc2cc(OC/C=C(\C)CCC=C(C)C)ccc12 [Compound 77, 3-(benzoyloxy)-4-(acetoxy)-7-(geranyloxy)-2H-1-benzopyran-2-one]",31
2,"CC(C)Oc1ccc2c(OC(=O)c3ccccc3)c(OC(=O)c3ccccc3)c(=O)oc2c1 [Compound 47, 3,4-(dibenzoyloxy)-7-(isopropoxy)-2H-1-benzopyran-2-one]",31
3,"COc1ccc2oc(=O)c(OC(C)=O)c(O)c2c1 [Compound 278, 3-(acetoxy)-4-(hydroxy)-6-(methoxy)-2H-1-benzopyran-2-one]",36
4,"CCCCCCCCCCOc1ccc2c(OC(C)=O)c(O)c(=O)oc2c1 [Compound 60, 3-hydroxy-4-(acetoxy)-7-(decyloxy)-2H-1-benzopyran-2-one]",35
5,"CC(C)=CCC/C(C)=C/COc1cccc2c(OC(C)C)c(O)c(=O)oc12 [Compound 163, 3-hydroxy-4-(isopropoxy)-8-(geranyloxy)-2H-1-benzopyran-2-one]",32
6,"CC(=O)Oc1c(OC(=O)c2ccccc2)c2cccc(O)c2oc1=O [Compound 96, 3-(acetoxy)-4-(benzoyloxy)-8-hydroxy-2H-1-benzopyran-2-one]",32
7,"CC(C)=CCC/C(C)=C/COc1ccc2c(O)c(O)c(=O)oc2c1 [Compound 75, 3,4-(hydroxy)-7-(geranyloxy)-2H-1-benzopyran-2-one]",45
8,"CCCCCCCCCCOc1c(OC)c(=O)oc2cc(OC(C)C)ccc12 [Compound 50, 3-(methoxy)-4-(decyloxy)-7-(isopropoxy)-2H-1-benzopyran-2-one]",33
9,"CCCCCCCCCCOc1cccc2oc(=O)c(OC(C)=O)c(OC(C)C)c12 [Compound 235, 3-(acetoxy)-4-(isopropoxy)-5-(decyloxy)-2H-1-benzopyran-2-one]",30
10,"CCCCCCCCCCOc1ccc2c(OC(C)C)c(O)c(=O)oc2c1 [Compound 63, 3-hydroxy-4-(isopropoxy)-7-(decyloxy)-2H-1-benzopyran-2-one]",37
11,"CC(C)=CCC/C(C)=C/COc1c(O)c2c(OC(C)C)cccc2oc1=O [Compound 219, 3-(geranyloxy)-4-hydroxy-5-(isopropoxy)-2H-1-benzopyran-2-one]",36
12,"CC(C)=CCC/C(C)=C/COc1c(O)c2cccc(OC(C)C)c2oc1=O [Compound 138, 3-(geranyloxy)-4-hydroxy-8-(isopropoxy)-2H-1-benzopyran-2-one]",35
13,"CCCCCCCCCCOc1ccc2c(OC)c(OC/C=C(\C)CCC=C(C)C)c(=O)oc2c1 [Compound 71, 3-(geranyloxy)-4-(methoxy)-7-(decyloxy)-2H-1-benzopyran-2-one]",30
14,"COc1ccc2c(OC(=O)c3ccccc3)c(OC/C=C(\C)CCC=C(C)C)c(=O)oc2c1 [Compound 39, 3-(geranyloxy)-4-(benzoyloxy)-7-(methoxy)-2H-1-benzopyran-2-one]",30
15,"COc1c(OC/C=C(\C)CCC=C(C)C)c2cccc(OC)c2oc1=O [Compound 125, 3,8-(dimethoxy)-4-(geranyloxy)-2H-1-benzopyran-2-one]",31
16,"CCCCCCCCCCOc1cccc2oc(=O)c(OC/C=C(\C)CCC=C(C)C)c(O)c12 [Compound 237, 3-(geranyloxy)-4-hydroxy-5-(decyloxy)-2H-1-benzopyran-2-one]",34
17,"CC(=O)Oc1ccc2c(OC(C)=O)c(OC(C)=O)c(=O)oc2c1 [Compound 11, 3,4,7-(triacetoxy)-2H-1-benzopyran-2-one]",31

row,Compound,inhibition in vivo at 10 mg/kg [%]
1,"CCCCCCCCCCOc1c(O)c2cccc(O)c2oc1=O [Compound 97, 3-(decyloxy)-4,8-(dihydroxy)-2H-1-benzopyran-2-one]",34
2,"COc1c(OC(C)C)c2c(OC)cccc2oc1=O [Compound 200, 3,5-(dimethoxy)-4-(isopropoxy)-2H-1-benzopyran-2-one]",30
3,"CCCCCCCCCCOc1cccc2c(OC/C=C(\C)CCC=C(C)C)c(OC(=O)c3ccccc3)c(=O)oc12 [Compound 154, 3-(benzoyloxy)-4-(geranyloxy)-8-(decyloxy)-2H-1-benzopyran-2-one]",31
4,"O=C(Oc1c(O)c2cc(O)ccc2oc1=O)c1ccccc1 [Compound 262, 3-(benzoyloxy)-4,6-(dihydroxy)-2H-1-benzopyran-2-one]",30
5,"CC(C)Oc1cccc2oc(=O)c(OC(=O)c3ccccc3)c(O)c12 [Compound 210, 3-(benzoyloxy)-4-hydroxy-5-(isopropoxy)-2H-1-benzopyran-2-one]",40
6,"COc1cccc2c(OC(C)C)c(OC/C=C(\C)CCC=C(C)C)c(=O)oc12 [Compound 124, 3-(geranyloxy)-4-(isopropoxy)-8-(methoxy)-2H-1-benzopyran-2-one]",33
7,"CC(C)=CCC/C(C)=C/COc1c(O)c(=O)oc2c(OC(C)C)cccc12 [Compound 139, 3-hydroxy-4-(geranyloxy)-8-(isopropoxy)-2H-1-benzopyran-2-one]",33
8,"CC(=O)Oc1c(O)c(=O)oc2c(OC/C=C(\C)CCC=C(C)C)cccc12 [Compound 160, 3-hydroxy-4-(acetoxy)-8-(geranyloxy)-2H-1-benzopyran-2-one]",34
9,"CCCCCCCCCCOc1ccc2oc(=O)c(O)c(OC)c2c1 [Compound 277, 3-(hydroxy)-4-(methoxy)-6-(decyloxy)-2H-1-benzopyran-2-one]",35
10,"CC(C)=CCC/C(C)=C/COc1ccc2c(O)c(OC/C=C(\C)CCC=C(C)C)c(=O)oc2c1 [Compound 83, 3,7-(digeranyloxy)-4-hydroxy-2H-1-benzopyran-2-one]",34
11,"O=C(Oc1c(O)c2ccc(O)cc2oc1=O)c1ccccc1 [Compound 4, 3-(benzoyloxy)-4,7-dihydroxy-2H-1-benzopyran-2-one]",43
12,"CC(C)=CCC/C(C)=C/COc1c(OC/C=C(\C)CCC=C(C)C)c2c(OC(C)C)cccc2oc1=O [Compound 223, 3,4-(digeranyloxy)-5-(isopropoxy)-2H-1-benzopyran-2-one]",33
13,"COc1ccc2c(OC)c(O)c(=O)oc2c1 [Compound 33, 3-hydroxy-4,7-(dimethoxy)-2H-1-benzopyran-2-one]",33
14,"COc1c(O)c2cccc(OC/C=C(\C)CCC=C(C)C)c2oc1=O [Compound 162, 3-(methoxy)-4-hydroxy-8-(geranyloxy)-2H-1-benzopyran-2-one]",31
15,"CC(=O)Oc1c(OC/C=C(\C)CCC=C(C)C)c(=O)oc2cccc(OC/C=C(\C)CCC=C(C)C)c12 [Compound 255, 3,5-(digeranyloxy)-4-(acetoxy)-2H-1-benzopyran-2-one]",33
16,"CC(C)=CCC/C(C)=C/COc1ccc2c(O)c(OC(=O)c3ccccc3)c(=O)oc2c1 [Compound 74, 3-(benzoyloxy)-4-hydroxy-7-(geranyloxy)-2H-1-benzopyran-2-one]",34
17,"O=c1oc2cccc(O)c2c(O)c1O [Compound 177, 3,4,5-trihydroxy-2H-1-benzopyran-2-one]",37
